Test results from patent US20230322861A1, “SYNTHETIC PEPTIDES FOR DISSOLVING TAU INCLUSIONS” (The Trustees of Princeton University, priority 2022, published 2023).

Assays:
Type in all cases: cell-based
tau inclusions [1] = experiment: co-expression of fluorescent-tagged tau inclusions with mCherry-tagged synthetic peptide sequences; probability of cells containing a tau inclusion; details: cells expressing peptide-mCherry fusion; FIGS. 2H, 2J, 2K
tau inclusions [2] = experiment: as above; details: at different concentrations of co-expressed peptide-mCherry fusion; FIGS. 2A-2K
Experimental: Various peptide sequences were tested by co-expressing fluorescent-tagged tau inclusions with mCherry-tagged synthetic peptide sequences, and quantifying a probability of cells containing a tau inclusion at different synthetic peptide concentrations.

[3] = tested on: tau aggregate-containing cells (strain DS18); experiment: curing of tau aggregates in colonies of tau aggregate-containing cells expressing mCherry or SubF-mCherry; details: expressed for a week, passaged at low density, imaged after 7 days, 14 fields of view; representative field FIGS. 3A-3B
Experimental: FIGS. 3A-3B are images of representative fields of view of mCherry (3A) or SubF-mCherry (3B) in tau aggregate-containing cell colonies.
As an example of this, mCherry or SubF-mCherry were expressed in tau aggregate-containing cells (strain DS18) for a week. Cells were then passaged into a new dish at low density. After 7 days, 14 fields of view were imaged for each condition, and the fraction of colonies cured of tau aggregates was determined.

Molecule	tau-negative aggregates (aggregates formed absent the presence of tau) (tau inclusions [1])	probability of cells containing a tau inclusion (tau inclusions [2])	colonies with / cured of tau aggregates [3]
CK2 (SDSDS) (ASSSDSDSSSSSSSSSSSSSSSSSSSSSSSSSSSSSSSSSSSSSSSSSSSSA) [#11, 14, mCherry-tagged]	without forming tau-negative aggregates	reduces tau inclusion	–
S52 (Pure Polyserine) [#8]	tau-negative aggregates were noted	no decrease in tau inclusions was seen	–
SR Kinase (SRSRS) (ARSRSRSSSSSSSSSSSSSSSSSSSSSSSSSSSSSSSSSSSSSSSSSSSSSA) [#10, 13, mCherry-tagged]	tau-negative aggregates were noted	reducing tau inclusions, relatively rapidly	–
Sub F-mCherry: SubF sequence (KRKRR followed by 42 serines, SEQ ID NO. 3) fused to mCherry (KRKRRSSSSSSSSSSSSSSSSSSSSSSSSSSSSSSSSSSSSSSSSSS)	–	–	many of the 27 colonies lack aggregates in all cells
SubF Scramble (SSSRSSSSSKSSSSSSASSSSPSSASSSSSRSSSSPSSSSSSKSSSSSRSSS) [#9, 12, mCherry-tagged]	–	no reduction in tau inclusions was seen	–
Human SRRM2 Isoform 1 Fragment 26 (F26) WT (5, mCherry-tagged) SSSSSSGSSSSDSEGSSLPVQPEVALKRVPSPTPAPKEAVREGRPPEPTPAKRKRRSSSSSSSSSSSSSSSSSSSSSSSS	–	reduce the probability of tau inclusions to zero	–
